Laboratory results reported in patent US6242433A, “Geranylgeranyl-derivatives, process for the preparation thereof and related pharmaceutical compositions” (Laboratori Baldacci SpA, priority 1995, dated 2001).
Where a name gives a salt, the structure may show the parent alone. Read-outs that look alike come from different tables or passages of the source.

Experiments:
p21rap1 = experiment: inhibition of p21rap1 geranylgeranylation in a malignant tumoral human cell line (electrophoresis, PVDF membrane, specific polyclonal antibody); assay type: cell-based; conditions: 75 μM; 24 hours
Description: The ability of the compounds according to the present invention of inhibiting the protein geranylgeranylation has been evaluated by means of an in vitro test on a malignant tumoral human cell line which has been treated with the following geranylgeranyl-derivatives:
The cells have been treated with increasing amounts of the geranylgeranyl derivatives BAL9504, BAL9505, BAL9603, BAL9605, BAL9608, BAL9609, BAL9610, BAL9611, BAL9613, BAL9503, BAL9614, (1-75 μM) and, after 24 hours, they have been collected and solubilized in a lysis solution containing non-ionic detergents. The soluble fraction has been collected by centrifugation and proteins separated by means of acrylamide gel electrophoresis and subsequently transferred onto a polyvinylidene fluoride (PVDF) membrane.
The presence of the geranylgeranylated protein p21rap1 has been then evidenced by means of a specific polyclonal antibody followed by chemiluminescent detection by means of a secondary antibody linked to alkaline phosphatase as previously described (M. A. Mansfield, FASEB J., S, A1428, 1994).

MIA PaCa-2 cell line [1] = experiment: apoptosis in MIA PaCa-2 cells (ELISA of fragmented DNA); assay type: cell-based, human; conditions: 1-75 μM; vs non-treated cells
Description: Apoptosis consists in enzymatic digestion of nuclear DNA by endogenous nucleases within the cell and it occurs when cell replication is impaired by agents that block cell cycle progression towards mitosis.

MIA PaCa-2 cell line [2] = experiment: citotoxicity on human pancreas cancer MIA PaCa-2 cell line; assay type: cell-based
Description: The relevance of such an effect on cell proliferation has been then evaluated by studying the citotoxicity of the above-mentioned compounds on the of human pancreas cancer MIA PaCa-2 cell line following the method described by R. Danesi et. al., Mol. Pharmacol., 47, 1106, 1995.
(§1) The citotoxicity of the geranylgeranyl-derivatives BAL9504 and BAL9503 has also been evaluated on the normal diploid fibroblast cells MRC-5 from human lung following the method described by R. Danesi et. al., Mol. Pharmacol., 47, 1106, 1995. Table 2 reports the concentration of the compounds under study that produces 50% growth inhibition (IC50) in MRC-5 and MIA PaCa-2 cell lines together with the sensibility index, that is the ratio between the IC50 in MRC-5 and MIA PaCa-2 cells.

[3] = test system: normal diploid fibroblast cells MRC-5; experiment: citotoxicity on normal diploid fibroblast cells MRC-5 from human lung; assay type: cell-based; conditions: Table 2; for IC50: Homo sapiens, MRC5, MRC-5, read-out: IC50 (50% growth inhibition); for Sensibility Index (ratio between the IC50 in MRC-5 and MIA PaCa-2 cells): IC50 MRC-5 / IC50 MIA PaCa-2
Description: as §1

[4] = Table 1, read-out: IC50 (the concentration that produces 50% reduction in cell growth)
[5] = Table 2, read-out: IC50 (50% growth inhibition)

Structure (SMILES)	amount of the non-isoprenylated protein relative to the isoprenylated one (p21rap1) (p21rap1)	induction of death for apoptosis (MIA PaCa-2 cell line [1])	IC50 (MIA PaCa-2 cell line [2]; [4]) [µM]	IC50 (MIA PaCa-2 cell line [2]; [5]) [µM]	IC50 [3] [µM]	Sensibility Index (ratio between the IC50 in MRC-5 and MIA PaCa-2 cells) [3]
CC(C)=CCC/C(C)=C/CC/C(C)=C/CC/C(C)=C/COC(=O)NS(N)(=O)=O [BAL9503, (E,E,E)-O-(3,7,11,15-tetramethyl-2,6,10,14-hexadecatetraenyl)-N-(aminosulfonyl)urethane]	equal to that of the isoprenylated one	induce death for apoptosis	10.5	10.5	256	24.4
CC(C)=CCC/C(C)=C/CC/C(C)=C/CC/C(C)=C/CONC(=O)CP(=O)(O)O [BAL9504, dipotassium salt of (E,E,E)-{2-oxo-2-[[(3,7,11,15-tetramethyl-2,6,10,14-hexadecatetraenyl)oxy]amino]ethyl}phosphonic acid]	equal to that of the isoprenylated one	induce death for apoptosis	2.1	2.1	54.6	26
CCOP(=O)(O)CC(=O)NOC/C=C(\C)CC/C=C(\C)CC/C=C(\C)CCC=C(C)C [BAL9505, monosodium salt of the monoethyl-ester of (E,E,E)-{2-oxo-2[[(3,7,11,15-tetramethyl-2,6,10,14-hexadecatetraenyl)oxy]amino]ethyl}phosphonic acid]	equal to that of the isoprenylated one	–	> 30	–	–	–
CC(C)=CCC/C(C)=C/CC/C(C)=C/CC/C(C)=C/CONC(=O)CCP(=O)(O)O [BAL9603, dipotassium salt of (E,E,E)-{3-oxo-3-[[(3,7,11,15-tetramethyl-2,6,10,14-hexadecatetraenyl)oxy]amino]propyl}phosphonic acid]	–	–	> 30	–	–	–
CC(C)=CCC/C(C)=C/CC/C(C)=C/CC/C(C)=C/CNC(=O)CP(=O)(O)O [BAL9605, dipotassium salt of (E,E,E)-[2-oxo-2-[(3,7,11,15-tetramethyl-2,6,10,14-hexadecatetraenyl)amino]ethyl]phosphonic acid]	–	induce death for apoptosis	7.7	–	–	–
CC(C)=CCC/C(C)=C/CC/C(C)=C/CC/C(C)=C/CNC(=O)CCP(=O)(O)O [BAL9608, dipotassium salt of (E,E,E)-[3-oxo-3-[(3,7,11,15-tetramethyl-2,6,10,14-hexadecatetraenyl)amino]propyl]phosphonic acid]	–	–	16.7	–	–	–
CC(C)=CCC/C(C)=C/CC/C(C)=C/CC/C(C)=C/CCP(=O)(O)CP(=O)(O)O [BAL9609, tripotassium salt of (E,E,E)-[[(4,8,12,16-tetramethyl-3,7,11,15-heptadecatetraenyl)hydroxyphosphoryl]methyl]phosphonic acid]	–	induce death for apoptosis	3.5	–	–	–
CC(C)=CCC/C(C)=C/CC/C(C)=C/CC/C(C)=C/CCP(=O)(O)C(C)(C)P(=O)(O)O [BAL9610, tripotassium salt of (E,E,E)-1-methyl-1[(4,8,12,16-tetramethyl-3,7,11,15-heptadecatetraenyl)hydroxyphosphoryl]ethylphosphonic acid]	–	–	> 30	–	–	–
CCC(CC)(P(=O)(O)O)P(=O)(O)CC/C=C(\C)CC/C=C(\C)CC/C=C(\C)CCC=C(C)C [BAL9611, tripotassium salt of (E,E,E)-1-ethyl-1-[(4,8,12,16-tetramethyl-3,7,11,15-heptadecatetraenyl)hydroxyphosphoryl]propylphosphonic acid]	–	induce death for apoptosis	1.5	–	–	–
CC(C)=CCC/C(C)=C/CC/C(C)=C/CC/C(C)=C/CCP(=O)(O)O [BAL9613, dipotassium salt of (E,E,E)-(4,8,12,16-tetramethyl-3,7,11,15-heptadecatetraenyl)phosphonic acid]	–	–	> 30	–	–	–
CC(C)=CCC/C(C)=C/CC/C(C)=C/CC/C(C)=C/CONS(N)(=O)=O [BAL9614, (E,E,E)-1-[(aminosulfonyl)aminoxy]-3,7,11,15-tetramethyl-2,6,10,14-hexadecatetraene]	–	–	11.9	–	–	–
